The values below are quoted from earlier work in patent publication US20230109626A1 (priority 2020, published 2023).

The conditions of the data set: for solubility in water: at 20° C.

Some results are limits rather than exact numbers.

Turning to `[H]/N=C(\N/C(=N/[H])NCCCCCCNC(=N)NC(=N)Nc1ccc(Cl)cc1)Nc1ccc(Cl)cc1` [Chlorhexidine], the solubility in water was 80 mg/100 mL. Besides, the solubility result (temperature not given) is “about 80 mg/100 mL”. Turning to `N=C(NCCCCCCNC(=N)NC(=N)Nc1ccc(Cl)cc1)NC(=N)Nc1ccc(Cl)cc1.O=C(O)[C@H](O)[C@@H](O)[C@H](O)[C@H](O)CO.O=C(O)[C@H](O)[C@@H](O)[C@H](O)[C@H](O)CO` [chlorhexidine gluconate], the solubility in water was no less than 2100 mg/100 mL.
